In one series the test system is TGFβ2. Description: qRT-PCR of TGFβ transcripts in dermal papilla isolated from HFOCs. As to conditions: Galunisertib-treated HFOCs (10 μM, 48 h). It counts as cell-based, human. From the text:
Concentration and purity are ascertained in a NanoDrop spectrophotometer.
(§1) In addition, only anagen hair follicles are used.
(§2) Hair growth percentages is normalized to day 0.
For orientation: In qPCR the cycle at which signal appears reflects the starting amount.

Another series deals with LEF1. Put plainly: Immunohistochemistry of cryo-sectioned HFOCs: LEF1. It counts as cell-based, human. As to conditions: Galunisertib 48 h vs untreated.
From the text: as §2
(§3) FIG. 6. Galunisertib improves the WNT signaling in the bulb epithelial compartment. a) Representative IHC images of tissue sections of HFOCs with and without Galunisertib and stained for LEF1 (red) and β-catenin (green). Nuclei were counterstained with DAPI (blue). Scale bar, 100 μm. b,e) Adjusted intensity levels of LEF1 and β-catenin per DP and HB (bulb epithelium) areas, as measured in tissue sections from HFOCs with and without Galunisertib. All values are mean±SD of HFOCs established from n=4 donors (n>8 HFs per condition). ns p≥0.05, *p≤0.05 by unpaired t-test.
(§4) For immunohistochemistry, 2-day HFOCs are used for immunohistochemistry analysis. Briefly, HFs were embedded on a drop of OCT and stored at −80° C. 8 μm cryosections are air-dried and fixed in 4% PFA (for TGFβ2, cleavage Caspase 3, p-SMAD2 and KI67 immunostainings) or cold acetone (for LEF1 and β-catenin immunostaining). Following 2×5 min rinse with PBS, microsections are permeabilized 2× for 10 min with PBS+0.3% Triton X 100 (PBS-T) and then blocked with PBS+10% fetal bovine serum (FBS) for 1 hour at room temperature. Antibodies are diluted in PBS-T+1% FBS and incubation done overnight at 4° C. […]

The test system of series [1] is human hair follicle organ cultures (HFOCs). Put plainly: Ex vivo human scalp hair follicle organ culture: catagen onset and hair shaft elongation. As to conditions: 10 μM; in comparison to untreated controls; 10 days culture. It counts as cell-based.
From the text: FIG. 2. Galunisertib delays catagen entry in HFOCs. a) Hair growth ex vivo (HFOCs) under different treatment conditions for 10 days. Representative HF photos for each condition over time are shown in the panels. DP detachment was used as readout for catagen onset. Scale bar, 1 mm. b) Catagen onset timing in HFOCs under different treatment conditions as indicated. c) Percentage of hair shaft elongation in comparison to day 0. In b) and c), values are mean±SD of HFOCs established from n=5 independent donors (n>20 HFs per condition). ns not significant, *p≤0.05, **p≤0.01 by Mann-Whitney (b,c).
as §1, §2

The next series relates to β-catenin. Description: Immunohistochemistry of cryo-sectioned HFOCs: β-catenin. The class given is cell-based, human. As to conditions: DP adjacent epithelial compartment; Galunisertib 48 h vs untreated.
From the text: as §2, §3, §4

A further series has as its system cleaved Caspase 3. Description: Immunohistochemistry of cryo-sectioned HFOCs: cleaved Caspase 3. The class given is cell-based, human. As to conditions: mainly detected in the DP; HFOCs treated with Galunisertib for 48 h vs untreated.
From the text: as §2
FIG. 5. Galunisertib improves cell proliferation and the WNT signaling in the bulb epithelial compartment. a) Representative IHC images of tissue sections of HFOCs untreated and treated with Galunisertib and stained for KI67 and cleaved caspase 3. Nuclei were counterstained with DAPI. Scale bar, 100 μm. b,c) Adjusted intensity levels of KI67 and cleaved caspase 3 per DP and HB (bulb epithelium) areas, respectively, as measured in tissue sections from HFOCs with and without Galunisertib. All values are mean±SD of HFOCs established from n=8 donors (n>16 HFs per condition). ns p≥0.05, *p≤0.05 by unpaired t-test.
as §4

Series [2] in a line: Mass spectrometry of skin biopsies. The class given is in vivo, mouse. As to conditions: skin retrieved at day 14, N=3, mean±SD. Here is the method:
For mass spectrometry of skin biopsies, dorsal skin of mice under 10 μM and 100 μM galunisertib topical treatment for 14 days is collected after anesthesia (Ketamine 150 mg/kg+Medetomidine 2 mg/kg) and perfusion with PBS. Skin samples are snap frozen and stored at −80° C. until being sent for mass spec analysis by Cyprotex. Skin samples from N=3 animals per condition are homogenized 1:4 in mouse plasma, then quantified against a mouse plasma calibration curve. Analytical runs meeting calibration standard and QC acceptance criteria.

As for `Cc1cccc(-c2nn3c(c2-c2ccnc4ccc(C(N)=O)cc24)CCC3)n1` [Galunisertib], the “TGFβ2 gene expression in the DP” value with TGFβ2 is on record as “inhibit TGFβ2 gene expression”. In the series on LEF1 (bulb epithelium), the “LEF1 levels in the bulb epithelium” value is given as “increased levels”. Besides, the “LEF1 levels in the DP” value in the series with LEF1 (dermal papilla) is recorded as “not significantly upregulated”. In series [1], the “catagen entry (mean time HFOCs take to enter catagen)” value is given as “capable of delaying catagen entry” and the hair shaft elongation result is “impact in the hair shaft elongation”. In addition, the β-catenin intensity levels entry with β-catenin is “significantly enhances”. Also, the “fluorescence intensity levels of cleaved Caspase 3” value in the series with cleaved Caspase 3 is recorded as “do not show significant changes”. Moreover, the “concentration of compound in skin biopsies” value in series [2] (topical 10 μM galunisertib) turned out to be 1.6 ± 0.7 µM. In addition, in series [2] (topical 100 μM galunisertib), the “concentration of compound in skin biopsies” value stood at 9.6 ± 0.6 µM.

Values taken from patent publication US20260256771A1, “GALUNISERTIB FOR USE IN THE TREATMENT OF ANDROGENIC ALOPECIA” (SAÚDE VIÁVEL, S.A., priority 2022, published 2026).
